According to patent US20120302577A1 (AB SCIENCE, priority 2010, published 2012):
Where a name gives a salt, the structure may show the parent alone.

Assays:
patients with GIST = details: initial dose 400 mg/day, 345 patients; cited from earlier work
[1] = system: patients with advanced GIST; details: cited from earlier work
[2] = system: imatinib-resistant HMC-1α155 cells; experiment: Apoptosis assay by Propidium Iodide staining on imatinib-resistant cells; type: cell-based, human; details: imatinib-resistant HMC-1α155 cells exposed to 1 μM
Method: HMC-1 is a human mast cell line derived from a patient with mast cell leukaemia. The cell line used in this study, HMC-1α155, is a clone derived from the original population expressing endogenous Kit bearing the mutation Val 560 to Gly. […] The medium used in this case was a RPMI medium containing L-glutamine (Cambrex cat#12-702F) supplemented with 100 U/mL penicillin and 100 μg/mL streptomycin (Cambrex 100× penicilline/streptomycine mixture cat #17-602E), and with 10% v/v foetal calf serum (AbCys Lot S02823S1800) which has been previously heat-inactivated 30 minutes at 56° C. (RPMI 10). The medium containing the drugs was replaced with fresh one every 3-4 days. […] The principle behind the method for apoptosis assay by Propidium Iodide Staining (PI staining) is as follows: during apoptosis, DNA breakup causes small fragments of DNA to be free in the nucleus. Following appropriate elution with citrate buffer, these fragments are lost from the nucleus. As these cells now have a lower DNA content, subsequent staining with a DNA binding dye will reveal these cells in the sub-G1 region.

[3] = system: patients with advanced GIST; experiment: Phase 2 clinical trial, safety assessment (adverse events, NCI CTCAE v3.0); type: in vivo, human; details: for Abdominal Pain / Abdominal Pain Upper / Anaemia / Asthenia / Diarrhoea / Dry Skin / Erythema / Eye Oedema / Eyelid Oedema / Lacrimation Increased / Mucosal Inflammation / Muscle Spasms / Myalgia / Nausea / Neutropenia / Oedema Peripheral / Pruritus / Rash / Vomiting: N = 30
Description: Methods; Patients: Patients enrolled in this study were aged over 18 years with inoperable, non-pretreated, histologically proven locally advanced or metastatic, c-Kit positive GIST. […] Exclusion criteria included: inadequate organ function defined via blood tests, severe liver or cardiac failure, and severe neurological or psychiatric disorders. Patients receiving a concomitant treatment within 4 weeks before inclusion, and pregnant or lactating women were also excluded. […] All adverse events (AEs), including abnormal serology or haematology, were recorded regardless of causality.

[4] = system: patients with advanced GIST; experiment: Phase 2 clinical trial, time-to-event analysis (PFS, OS); type: in vivo, human
Description: Methods; Patients: Patients enrolled in this study were aged over 18 years with inoperable, non-pretreated, histologically proven locally advanced or metastatic, c-Kit positive GIST. […] Exclusion criteria included: inadequate organ function defined via blood tests, severe liver or cardiac failure, and severe neurological or psychiatric disorders. Patients receiving a concomitant treatment within 4 weeks before inclusion, and pregnant or lactating women were also excluded. […] Time-to-event analyses were calculated from the date of first masitinib intake to the date of event (documented progression or death). Patients who had not progressed at the date of last tumor assessment were censored at that date for PFS. Patients alive at the time of the analysis were censored at the date of last contact for OS. Methods; Statistical analyses: Simon […] two-stage design was used for this prospective, multicenter, single-group, phase II trial. Fourteen patients were initially enrolled, with recruitment of an additional ten patients being dependent on the occurrence of at least one objective RECIST response. This population was further extended to a total of 30 patients to ensure a sufficient evaluable population for all end-points; the type I(α) error was 5% (two-sided) for all analyses. Quantitative variables were described by the number of filled and missing data, mean, standard deviation, median, minimum and maximum. Qualitative variables were described by the number of missing data and, for each modality, frequency and percentage (referring to filled data). Time-to-event data were described using Kaplan-Meier (KM) estimates. The median was provided with its 95% confidence interval (95% CI). PFS rates were given every 6 months with KM estimates. All data analyses and reporting procedures used SAS v9.1 in a Windows XP operating system environment.

[5] = system: patients with advanced GIST; experiment: Phase 2 clinical trial, response rate according to RECIST (CT); type: in vivo, human; details: 2 months (N = 30)
Description: Methods; Patients: Patients enrolled in this study were aged over 18 years with inoperable, non-pretreated, histologically proven locally advanced or metastatic, c-Kit positive GIST. […] Exclusion criteria included: inadequate organ function defined via blood tests, severe liver or cardiac failure, and severe neurological or psychiatric disorders. Patients receiving a concomitant treatment within 4 weeks before inclusion, and pregnant or lactating women were also excluded. […] Methods; Statistical analyses: Simon […] two-stage design was used for this prospective, multicenter, single-group, phase II trial. Fourteen patients were initially enrolled, with recruitment of an additional ten patients being dependent on the occurrence of at least one objective RECIST response. This population was further extended to a total of 30 patients to ensure a sufficient evaluable population for all end-points; the type I(α) error was 5% (two-sided) for all analyses. Quantitative variables were described by the number of filled and missing data, mean, standard deviation, median, minimum and maximum. Qualitative variables were described by the number of missing data and, for each modality, frequency and percentage (referring to filled data). Time-to-event data were described using Kaplan-Meier (KM) estimates. The median was provided with its 95% confidence interval (95% CI). […]

[6] = system: patients with advanced GIST; details: after 2 months of masitinib; cited from earlier work
[7] = system: patients with advanced GIST; experiment: Phase 2 clinical trial, metabolic response (FDG-PET); type: in vivo, human; details: At 1 month (N = 13)
Description: Methods; Patients: Patients enrolled in this study were aged over 18 years with inoperable, non-pretreated, histologically proven locally advanced or metastatic, c-Kit positive GIST. […] Exclusion criteria included: inadequate organ function defined via blood tests, severe liver or cardiac failure, and severe neurological or psychiatric disorders. Patients receiving a concomitant treatment within 4 weeks before inclusion, and pregnant or lactating women were also excluded.

Compound: Cc1ccc(NC(=O)c2ccc(CN3CCN(C)CC3)cc2)cc1Nc1nccc(-c2cccnc2)n1 [imatinib]
- 2-year PFS rate (patients with GIST): 46%
- 2-year survival (patients with GIST): 72%
- 3-year survival (patients with GIST): ~61%
- Median PFS (patients with GIST): 18 months
- Median overall survival (OS) (patients with GIST): 55 months
- 2-year survival rate of patients with advanced GIST ([1]; after introduction of imatinib (pre-imatinib 25%)): about 70%
- Patients with early resistance (progression within first 6 months, no response) ([1]; in vivo): 10-15%

Compound: Cc1ccc(NC(=O)c2ccc(CN3CCN(C)CC3)cc2)cc1Nc1nc(-c2cccnc2)cs1 [masitinib, 4-(4-methylpiperazin-1-ylmethyl)-N-[4-methyl-3-(4-pyridin-3-ylthiazol-2-ylamino)phenyl]benzamide-mesylate methane sulfonic acid salt]
- % apoptosis (cells in apoptosis with respect to overall cells) [2]: More than 45%
- Abdominal Pain ([3]; All causalities, All grades): 16 (53.3%) Number (%) of patients
- Abdominal Pain Upper ([3]; All causalities, All grades): 9 (30.0%) Number (%) of patients
- Anaemia ([3]; All causalities, All grades): 6 (20.0%) Number (%) of patients
- Asthenia ([3]; All causalities, All grades): 27 (90.0%) Number (%) of patients
- Diarrhoea ([3]; All causalities, All grades): 18 (60.0%) Number (%) of patients
- Dry Skin ([3]; All causalities, All grades): 4 (13.3%) Number (%) of patients
- Erythema ([3]; All causalities, All grades): 6 (20.0%) Number (%) of patients
- Eye Oedema ([3]; All causalities, All grades): 14 (46.7%) Number (%) of patients
- Eyelid Oedema ([3]; All causalities, All grades): 7 (23.3%) Number (%) of patients
- Lacrimation Increased ([3]; All causalities, All grades): 4 (13.3%) Number (%) of patients
- Mucosal Inflammation ([3]; All causalities, All grades): 5 (16.7%) Number (%) of patients
- Muscle Spasms ([3]; All causalities, All grades): 12 (40.0%) Number (%) of patients
- Myalgia ([3]; All causalities, All grades): 4 (13.3%) Number (%) of patients
- Nausea ([3]; All causalities, All grades): 15 (50.0%) Number (%) of patients
- Neutropenia ([3]; All causalities, All grades): 5 (16.7%) Number (%) of patients
- Oedema Peripheral ([3]; All causalities, All grades): 8 (26.7%) Number (%) of patients
- Pruritus ([3]; All causalities, All grades): 11 (36.7%) Number (%) of patients
- Rash ([3]; All causalities, All grades): 12 (40.0%) Number (%) of patients
- Vomiting ([3]; All causalities, All grades): 10 (33.3%) Number (%) of patients
- Abdominal Pain ([3]; All causalities, G3 + G4): 2 (6.7%) Number (%) of patients
- Anaemia ([3]; All causalities, G3 + G4): 1 (3.3%) Number (%) of patients
- Asthenia ([3]; All causalities, G3 + G4): 1 (3.3%) Number (%) of patients
- Diarrhoea ([3]; All causalities, G3 + G4): 1 (3.3%) Number (%) of patients
- Eye Oedema ([3]; All causalities, G3 + G4): 1 (3.3%) Number (%) of patients
- Mucosal Inflammation ([3]; All causalities, G3 + G4): 1 (3.3%) Number (%) of patients
- Neutropenia ([3]; All causalities, G3 + G4): 2 (6.7%) Number (%) of patients
- Pruritus ([3]; All causalities, G3 + G4): 1 (3.3%) Number (%) of patients
- Rash ([3]; All causalities, G3 + G4): 3 (10.0%) Number (%) of patients
- Patients reporting at least one treatment-related AE ([3]; ITT N = 30): All patients
- Treatment-related toxicity per patient: abdominal pain ([3]; ITT N = 30): 33%
- Treatment-related toxicity per patient: asthenia ([3]; ITT N = 30): 83%
- Treatment-related toxicity per patient: cutaneous rash ([3]; ITT N = 30): 40%
- Treatment-related toxicity per patient: diarrhoea ([3]; ITT N = 30): 57%
- Treatment-related toxicity per patient: eye oedema ([3]; ITT N = 30): 47%
- Treatment-related toxicity per patient: muscle spasms ([3]; ITT N = 30): 40%
- Treatment-related toxicity per patient: nausea ([3]; ITT N = 30): 47%
- Treatment-related toxicity per patient: peripheral oedema ([3]; ITT N = 30): 20%
- Treatment-related toxicity per patient: pruritus ([3]; ITT N = 30): 33%
- Treatment-related toxicity per patient: upper abdominal pain ([3]; ITT N = 30): 23%
- Treatment-related toxicity per patient: vomiting ([3]; ITT N = 30): 23%
- Abdominal Pain ([3]; Suspected, All grades): 10 (33.3%) Number (%) of patients
- Abdominal Pain Upper ([3]; Suspected, All grades): 7 (23.3%) Number (%) of patients
- Anaemia ([3]; Suspected, All grades): 4 (13.3%) Number (%) of patients
- Asthenia ([3]; Suspected, All grades): 25 (83.3%) Number (%) of patients
- Diarrhoea ([3]; Suspected, All grades): 17 (56.7%) Number (%) of patients
- Dry Skin ([3]; Suspected, All grades): 4 (13.3%) Number (%) of patients
- Erythema ([3]; Suspected, All grades): 5 (16.7%) Number (%) of patients
- Eye Oedema ([3]; Suspected, All grades): 14 (46.7%) Number (%) of patients
- Eyelid Oedema ([3]; Suspected, All grades): 7 (23.3%) Number (%) of patients
- Lacrimation Increased ([3]; Suspected, All grades): 4 (13.3%) Number (%) of patients
- Mucosal Inflammation ([3]; Suspected, All grades): 5 (16.7%) Number (%) of patients
- Muscle Spasms ([3]; Suspected, All grades): 12 (40.0%) Number (%) of patients
- Myalgia ([3]; Suspected, All grades): 4 (13.3%) Number (%) of patients
- Nausea ([3]; Suspected, All grades): 14 (46.7%) Number (%) of patients
- Neutropenia ([3]; Suspected, All grades): 5 (16.7%) Number (%) of patients
- Oedema Peripheral ([3]; Suspected, All grades): 6 (20.0%) Number (%) of patients
- Pruritus ([3]; Suspected, All grades): 10 (33.3%) Number (%) of patients
- Rash ([3]; Suspected, All grades): 12 (40.0%) Number (%) of patients
- Vomiting ([3]; Suspected, All grades): 7 (23.3%) Number (%) of patients
- Abdominal Pain ([3]; Suspected, G3 + G4): 1 (3.3%) Number (%) of patients
- Anaemia ([3]; Suspected, G3 + G4): 1 (3.3%) Number (%) of patients
- Asthenia ([3]; Suspected, G3 + G4): 1 (3.3%) Number (%) of patients
- Diarrhoea ([3]; Suspected, G3 + G4): 1 (3.3%) Number (%) of patients
- Eye Oedema ([3]; Suspected, G3 + G4): 1 (3.3%) Number (%) of patients
- Mucosal Inflammation ([3]; Suspected, G3 + G4): 1 (3.3%) Number (%) of patients
- Neutropenia ([3]; Suspected, G3 + G4): 2 (6.7%) Number (%) of patients
- Pruritus ([3]; Suspected, G3 + G4): 1 (3.3%) Number (%) of patients
- Rash ([3]; Suspected, G3 + G4): 3 (10.0%) Number (%) of patients
- Cardiac side-effects ([3]; to date): no cardiac side-effects have been observed
- OS rates (%) [95% CI] ([4]; 12 months): 96.7%
- PFS rate (%) [95% CI] ([4]; 24 months): 60%
- PFS rate (%) [95% CI] ([4]; 36 months): 55%
- Response (RECIST) CR + PR + SD (disease control rate), % [5]: (96.7%) [82.8; 99.9]
- Response (RECIST) CR, % ([5]; 7.5 mg/kg/day oral): (0.0%)
- Patients with tumour response assessed with DCE-US [6]: 75%
- Metabolic response CMR + PMR (metabolic response rate), % [7]: (69.2%)
- Metabolic response CMR, % [7]: (0.0%)
